# Results from publication PMC10208956, “Microbial peptides activate tumour-infiltrating lymphocytes in glioblastoma” (Nature, 2023).
# Experiments:
# Format in all cases: cell-based, human
# [1] = system: isolated TIL-derived CD4+ TCCs; assay: All isolated TCCs tested against SIN3A* peptide: proliferation (SI); conditions: for SI: proliferation, sheet 2b
# [2] = system: TCC88; assay: Cytokine and chemokine secretion of TCC88 after peptide stimulation; conditions: TCC88 supernatant after peptide stimulation; no peptide control subtracted; Fig. 3e
# Source text: Fig. 3 Bacteria-derived and microbiota-derived peptides can stimulate TCC88 as well as the tumour antigen. a, Peptides with the highest predicted stimulatory scores were identified by searching various databases (see Methods). Numbers of unique 10-mer peptides within each database, synthesized peptides, TCC88 stimulatory peptides and the corresponding percentage of stimulatory peptides within each database are shown. […] Cytokine and chemokine secretion of TCC88 was examined and compared upon stimulation with these three different antigens. A specific amount of each cytokine and chemokine (pg ml^−1) was calculated by subtracting the cytokines in the negative control cultures (no peptide control). f, Cytotoxicity of TCC88 against the autologous tumour cell line after stimulation with 2 µM of SIN3A* and HGM3 (data represent the mean percentage of two replicate wells). E:T, effector to target. g, TCC88 was tested with HGM3 (10 µM) or SIN3A* (10 µM) peptides or both together (each 10 µM), and ^3H-thymidine incorporation was measured after 3 days (data represent the mean SI value of three replicate wells ± s.e.m.). Also see Extended Data Figs. 3 and 4. Source data
# Supernatants from each experiment were harvested a day before adding thymidine and frozen at −20 °C. Cytokines were measured using ELISA for human IFNγ ELISA MAX (BioLegend), human GM-CSF DuoSet ELISA (R&D Systems) and bead-based assays. A Synergy H1 hybrid multi-mode reader (Agilent) was used to measure the absorbance. The LEGENDplex Multi-analyte Flow Assay kit (BioLegend) is a 13-plex human TH cytokine panel, which includes IFNγ, TNF, IL-2, IL-4, IL-5, IL-6, IL-9, IL-10, IL-13, IL-17A, IL-17F, IL-21 and IL-22. […] LSR Fortessa Flow Cytometer (BD Biosciences) was used to measure cytokines, and data were analysed using FlowJo (Tree Star). The Human XL Cytokine Luminex Performance Assay Fixed Panel (R&D Systems) contains 45 analytes covering a broad range of various chemokines and cytokines.
# [3] = system: TCC8F7; assay: Proliferation of TCC8F7, 3H-thymidine (SI), 3 days; conditions: irradiated autologous PBMCs as APCs, Extended Data Fig. 5d
substance,measurement,setting,value
Ac-QPVEFNHAIHYVN-NH2 [SIN3A*],SI,[1]; TCC4,326.128
same,SI,[1]; TCC11,238.815
same,SI,[1]; TCC12,287.573
same,SI,[1]; TCC13,453.401
same,SI,[1]; TCC15,28.5845
same,SI,[1]; TCC16,23.5776
same,SI,[1]; TCC20,244.524
same,SI,[1]; TCC29,34.8583
same,SI,[1]; TCC31,128.595
same,SI,[1]; TCC32,5.805
same,SI,[1]; TCC33,313.375
same,SI,[1]; TCC35,7.243
same,SI,[1]; TCC37,2.779
same,SI,[1]; TCC38,611.635
same,SI,[1]; TCC43,28.9619
same,SI,[1]; TCC47,29.6013
same,SI,[1]; TCC52,25.0598
same,SI,[1]; TCC56,22.816
same,SI,[1]; TCC57,3.669
same,SI,[1]; TCC60,23.5877
same,SI,[1]; TCC63,17.3519
same,SI,[1]; TCC67,7.121
same,SI,[1]; TCC68,7.155
same,SI,[1]; TCC72,5.137
same,SI,[1]; TCC75,11.5536
same,SI,[1]; TCC76,2.574
same,SI,[1]; TCC88,34.5634
same,SI,[1]; TCC89,2.064
same,SI,[1]; TCC90,56.5299
same,SI,[1]; TCC91,28.9154
same,SI,[1]; TCC92,23.8373
same,SI,[1]; TCC93,31.4988
same,SI,[1]; TCC94,41.408
same,SI,[1]; TCC96,17.6927
same,SI,[1]; TCC97,56.4388
same,SI,[1]; TCC98,67.9438
same,SI,[1]; TCC99,7.081
same,SI,[1]; TCC101,5.504
same,SI,[1]; TCC102,3.298
same,SI,[1]; TCC103,23.6756
same,SI,[1]; TCC104,20.3791
same,SI,[1]; TCC107,14.7872
same,SI,[1]; TCC109,67.7177
same,SI,[1]; TCC110,38.4196
same,SI,[1]; TCC111,16.0477
same,SI,[1]; TCC112,3.861
same,SI,[1]; TCC113,9.948
same,SI,[1]; TCC114,19.6549
same,SI,[1]; TCC115,9.682
same,SI,[1]; TCC116,36.7042
same,SI,[1]; TCC118,2.382
same,SI,[1]; TCC120,8.436
same,SI,[1]; TCC121,46.4714
same,SI,[1]; TCC124,44.5013
same,SI,[1]; TCC126,30.498
same,SI,[1]; TCC127,40.4213
same,SI,[1]; TCC128,20.9837
same,SI,[1]; TCC129,2.6751
same,SI,[1]; TCC130,24.2362
same,SI,[1]; TCC132,2.2794
same,SI,[1]; TCC133,8.094
same,SI,[1]; TCC134,2.175
same,SI,[1]; TCC135,13.0838
same,SI,[1]; TCC137,37.685
same,SI,[1]; TCC138,0.96
same,CD4+ TCCs that responded by proliferation or production of IFNγ,"[1]; TCCs isolated from SIN3A*-stimulated TILs, 3 days, Fig. 2b",70 out of 124
same,CCL20/MIP-3α,[2],15.37 pg/mL
same,CD40 Ligand,[2],2926.92 pg/mL
same,CXCL1/GROα,[2],71.75 pg/mL
same,CXCL2/GROβ,[2],125.05 pg/mL
same,CXCL8/IL-8,[2],0 pg/mL
same,CXCL10/IP-10,[2],22.77 pg/mL
same,Flt-3 Ligand,[2],138.99 pg/mL
same,Fractalkine,[2],649.3 pg/mL
same,GM-CSF,[2],12306.4 pg/mL
same,Granzyme B,[2],3726.29 pg/mL
same,IFN-α,[2],6.21 pg/mL
same,IFN-γ,[2],2158.92 pg/mL
same,IL-1rα,[2],2936.96 pg/mL
same,IL-1α,[2],18.71 pg/mL
same,IL-1β,[2],19.49 pg/mL
same,IL-2,[2],1202.18 pg/mL
same,IL-3,[2],486.43 pg/mL
same,IL-4,[2],244.81 pg/mL
same,IL-5,[2],13.04 pg/mL
same,IL-6,[2],272.8 pg/mL
same,IL-7,[2],2.58 pg/mL
same,IL-10,[2],469.8 pg/mL
same,IL-12p70,[2],34.04 pg/mL
same,IL-13,[2],1544.08 pg/mL
same,IL-15,[2],2.67 pg/mL
same,IL-17A,[2],3.91 pg/mL
same,IL-17E/IL-25,[2],6.04 pg/mL
same,IL-33,[2],26.68 pg/mL
same,TNF-α,[2],10260.2 pg/mL
same,response of TCC8F7 (in words),[3],strongly responds
